Patent US11058113B1, “Fly and pupa insecticide” (Fly's Water, LLC, priority 2018, dated 2021)

Tests used:
Assay type in all cases: in vivo
[1] = system: Musca domestica Linnaeus adult houseflies; assay: Needle inoculum (direct application) on adult flies
Description: (§1) The Solution may be poured into a container having a spray nozzle or provided in an aerosol container. Alternatively, the Solution may be poured into an open container for direct contact. The Solution may be poured directly onto pupa or sprayed. Several experiments were performed on Musca domestica Linnaeus adult houseflies, pupa, and larva using varying dilutions, concentrations, and combinations of components, along with a dihydrogen monoxide control to compare the effectiveness and potency of each composition for quickly killing adult flies, pupa, and larva. […] During experimentation, a needle inoculum (syringe) having a modified composition for adult flies, a spray inoculum having the modified composition for adult flies, and a dihydrogen monoxide control for adult flies were conducted. References to “needle inoculum” refers to directly applying the modified composition to the adult flies.

[2] = system: Musca domestica Linnaeus house fly; assay: Fly killing, general statements (application not specified); settings: for independent house fly adulticidal properties of the individual component: individual formula component
Excerpt: The concentrations, formulas, and composition noted herein have been evaluated and tested for optimal effect against adult houseflies and pupa. Altering the preferred concentrations would decrease the effectiveness of the inventive Solution, leading to longer a time period before the flies and/or pupa are killed. The Solution may be poured into a container having a spray nozzle or provided in an aerosol container. Alternatively, the Solution may be poured into an open container for direct contact. The Solution may be poured directly onto pupa or sprayed. Several experiments were performed on Musca domestica Linnaeus adult houseflies, pupa, and larva using varying dilutions, concentrations, and combinations of components, along with a dihydrogen monoxide control to compare the effectiveness and potency of each composition for quickly killing adult flies, pupa, and larva. […] These minimal moments of delay between contact and expiration prevents the fly from falling and immediately dying in an undesired location, for example, on a food surface. […] The user can either wait for the fly to die solely from the spray, or, alternatively, the user can implement using the spray as one of the first steps for disabling the fly before immediately killing the fly with either more application of the sprayable composition or with another aid, for example, a fly swatter.
The invention, when sprayed on fly pupa, prevents the pupa from hatching. The preferred type of fly and fly pupa that are effectively killed by this Solution are Musca domestica Linnaeus houseflies. Because the composition (or Solution) is nontoxic, nonabrasive, and ingestible for humans, the Solution can be sprayed or applied directly to a surface, including food. Various experiments were conducted to evaluate the efficacy of each component used in the Solution.

[3] = system: Musca domestica Linnaeus adult houseflies; assay: Spray inoculum on adult flies; settings: 75° F.
Description: as §1

[4] = FIG. 30, 50% dilution, same temperature (75° F.)
[5] = FIG. 30, needle inoculum as printed, 0% dilution of 10 mg/mL, 75° F.
[6] = needle inoculum, 0% (no) dilution, 75° F., time in E2/E3
[7] = needle inoculum, 50% dilution with water, 75° F.
[8] = needle inoculum, 50% dilution with water, 75° F., time in E5/E6
[9] = needle inoculum, 75% dilution with water, 75° F.
[10] = needle inoculum, 90% dilution with water, 75° F.
[11] = 50% dilution with water, time in E36/E37
[12] = printed 50% dilution, in the figure of the 75% dilution experiment
[13] = needle inoculum, 75% dilution with water, 75° F., 30 minutes
[14] = needle inoculum, 90% dilution with water, 75° F., 30 minutes
[15] = 90% dilution with water, 30 minutes
[16] = needle inoculum, no (0%) dilution, 75° F.

CCCCC(CC)COC(=O)CC(C(=O)OCC(CC)CCCC)S(=O)(=O)[O-].[Na+] (centres unmarked) [dioctyl sodium sulfosuccinate]
deaths of adult flies [1, 4]: 10 out of 10
time within which the deaths occurred [1, 4]: ≤ 46 s
deaths of adult flies ([1]; FIG. 30, 90% dilution): 10 out of 10
time within which the deaths occurred ([1]; FIG. 30, 90% dilution): ≤ 188 s
deaths of adult flies [1, 5]: 10 out of 10
time within which the deaths occurred [1, 5]: ≤ 36 s
time within which flies are immobilized and collapse ([2]; flies): 30 to 60 s

CCCCC(CC)COC(=O)CC(C(=O)OCC(CC)CCCC)S(=O)(=O)[O-].[Na+] (centres unmarked) [docusate, docusate sodium]
deaths of adult flies [1, 6]: 10 out of 10
time within which the deaths occurred ([1]; needle inoculum, 0% dilution, 75° F.): ≤ 48 s
time within which the deaths occurred [1, 7]: ≤ 56 s
deaths of adult flies [1, 8]: 10 out of 10
time within which the deaths occurred [1, 9]: ≤ 126 s
deaths of adult flies ([1]; needle inoculum, 75% dilution with water, 75° F., time in E8/E9): 10 out of 10
time within which the deaths occurred [1, 10]: ≤ 121 s
deaths of adult flies ([1]; needle inoculum, 90% dilution with water, 75° F., time in E11): 10 out of 10
deaths of adult flies ([1]; needle inoculum, 95% dilution with water, 75° F., time in E13): 10 out of 10
deaths of adult flies ([1]; needle inoculum, 99% dilution with water, 75° F., time in E15): 10 out of 10
time within which the deaths occurred ([3]; 50% dilution with water): ≤ 43 s
deaths of adult flies [3, 11]: 10 out of 10
time within which the deaths occurred ([3]; 90% dilution with water): ≤ 143 s
deaths of adult flies ([3]; 90% dilution with water, time in E42/E43): 10 out of 10
deaths of adult flies ([3]; 95% dilution with water, time in E45): 10 out of 10
deaths of adult flies ([3]; 99% dilution with water, time in E47): 10 out of 10
time within which the deaths occurred ([3]; no dilution): ≤ 68 s
deaths of adult flies ([3]; no dilution, time in E33/E34): 10 out of 10
time within which the deaths occurred [3, 12]: ≤ 89 s
deaths of adult flies ([3]; printed 50% dilution, in the figure of the 75% dilution experiment, time in E39/E40): 10 out of 10
independent house fly adulticidal properties of the individual component [2]: exhibit varying house fly adulticidal properties

CCO [ethyl alcohol]
deaths of adult flies [1, 6]: 10 out of 10
flight ability during the observation time [1, 7]: incapable of flight
deaths of adult flies [1, 8]: 10 out of 10
flight ability during the observation time [1, 13]: incapable of flight
deaths of adult flies within 30 minutes [1, 9]: 1 out of 10
flight ability during the observation time [1, 14]: incapable of flight
deaths of adult flies within 30 minutes [1, 10]: 0 out of 10
deaths of adult flies [3, 11]: 10 out of 10
flight ability during the observation time ([3]; 75% dilution with water, 30 minutes): incapable of flight
deaths of adult flies within 30 minutes ([3]; 75% dilution with water): 4 out of 10
flight ability during the observation time [3, 15]: incapable of flight
deaths of adult flies within 30 minutes ([3]; 90% dilution with water): 1 out of 10
flight ability during the observation time ([3]; no dilution): incapable of flight
deaths of adult flies ([3]; no dilution, time in E33/E34): 10 out of 10

OCC(O)CO [glycerin]
flight ability during the observation time [1, 7]: incapable of flight
deaths of adult flies within 30 minutes [1, 7]: 5 out of 10
flight ability during the observation time [1, 13]: incapable of flight
deaths of adult flies within 30 minutes [1, 9]: 4 out of 10
flight ability during the observation time [1, 14]: incapable of flight
deaths of adult flies within 30 minutes [1, 10]: 2 out of 10
flight ability during the observation time [1, 16]: incapable of flight
deaths of adult flies within 30 minutes [1, 16]: 0 out of 10
flight ability during the observation time ([3]; 50% dilution, 30 minutes): incapable of flight
deaths of adult flies within 30 minutes ([3]; 50% dilution): 6 out of 10
flight ability during the observation time [3, 15]: incapable of flight
deaths of adult flies within 30 minutes ([3]; 90% dilution with water): 7 out of 10
flight ability during the observation time ([3]; no dilution): incapable of flight
deaths of adult flies within 30 minutes ([3]; no dilution): 0 out of 10
flight ability during the observation time ([3]; printed 50% dilution, in the figure of the 75% dilution experiment, 30 minutes): incapable of flight
deaths of adult flies within 30 minutes [3, 12]: 6 out of 10
independent house fly adulticidal properties of the individual component [2]: exhibit varying house fly adulticidal properties
